Patent US20210395327A1, “Growth Hormone-Releasing Hormone Antagonists and Uses Thereof” (United States Government As Represented By The Department …, priority 2019, published 2021)
Non-standard residues stand in square brackets, D forms with d. Residues, ends and D or L forms follow the SMILES beside them. *: point of attachment. Phenylacetyl(2,3,4,5,6-F5) = O=C(Cc1c(F)c(F)c(F)c(F)c1F)*; Phe(F5) = N[C@@H](Cc1c(F)c(F)c(F)c(F)c1F)C(=O)O; Phe(4-Cl) = N[C@@H](Cc1ccc(Cl)cc1)C(=O)O; hArg = N=C(N)NCCCC[C@H](N)C(=O)O; 12Ado = NCCCCCCCCCCCC(=O)O; Nle = CCCC[C@H](N)C(=O)O; Orn = NCCC[C@H](N)C(=O)O; Abu = CC[C@H](N)C(=O)O; PhAc = O=C(Cc1ccccc1)*

How the values were obtained:
[1] = test system: lung cancer H460 xenograft; assay: Xenograft tumor growth in nude mice, H460; type: in vivo; conditions: Table 4H, Lung Ca H460, 4 weeks, 5 μg/day s.c.; for % Inhibition: vs control
Method: (§1) The peptides' activity was compared with GHRH antagonist MIA-602. All statistical analyzses were performed from comparing GHRA antagonists to non-treated tumor (control).
(§2) Peptides and chemicals. GHRH antagonists MIA-602 and AVR-GHRH antagonists (see Table 2 above) were synthesized by solid phase methods and purified by HPLC. The peptides were dissolved in DMSO and further diluted in 10% 1,2-propanediol. The final concentration of peptides was 50 µg/ml in 10% 1,2-propanediol containing 0.1% of DMSO.
(§3) Cell culture. Human cancer cell lines including pancreatic (PANC-1 and CFPAC-1), lung (HCC827 and H460), stomach (NCI-N87), prostate (PC3), brest (MX-1 and HCC-1806), colorectal (HT-29), and ovarian (SK-OV-3 and OVCAR-3) were obtained from the American Type Culture Collection (ATCC) and cultured at 37° C. in a humidified 95% air/5% CO2 atmosphere in the medium recommended by ATCC.
(§4) Xenograft models of human cancers in nude mice. Female athymic (NCr nu/nu) nude mice, 5- to 6-weeks-old, obtained from the Envigo labs (Tampa, Fla.), were housed in laminar airflow cabinets under pathogen-free conditions with a 12-h light/12-h dark schedule, and were fed autoclaved standard chow and water. To generate mice with xenografted tumors, tumor xenografts were initiated by subcutaneous (s.c.) injection of 107 human cancer cells into female nude mice. After about 4 weeks the resulting tumors were dissected and collected after removing necrosis tissues. The tumors were then cut into particles with size of 3 mm3 and transplanted s.c. by trocar needle into experimental animals. When tumors grew to the size of 50-60 mm3 (by volume), mice were randomized into groups and treated daily for 4-8 weeks by subcutaneous administration of 5 μg of GHRH antagonists MIA-602 or AVR-compounds (2-10 μg as indicated), or vehicle solutions (0.1% DMSO in 10% 1,2-propanediol) respectively. Tumor sizes were measured weekly.
(§5) Statistical analysis. One-way ANOVA followed by Bonferroni comparison were performed. Data are expressed as Mean±SEM. To determine statistical significance between animal groups, two-tailed Student's t-test was conducted. Differences were considered significant when p<0.05.
(§6) Results. […] FIG. 1A-N represents in vivo inhibition of tumor growth during the treatment with GHRH antagonist MIA-602 and selected AVR antagonists in nude mice xenografted with various human tumors including pancreatic cancer PANC-1 (FIG. 1A) and CFPAC-1 (FIG. 1I); lung cancer HCC827 (FIGS. 1B, C) and H460 (FIG. 1H); stomach cancer N87 (FIGS. 1D-F); colon cancer HT-29 (FIG. 1G); breast cancer MX-1 and HCC-1806 (FIGS. 1J, K); ovarian cancer SK-OV-3 and OVACAR-3 (FIGS. 1 L, M) and prostate cancer PC3 (FIG. 1N). See also Table 5.

[2] = test system: ovarian cancer SK-OV-3 xenograft; assay: Xenograft tumor growth in nude mice, SK-OV-3; type: in vivo; conditions: Table 4L, Ovarian Ca SK-OV-3, 7 weeks; for % Inhibition: vs control
Method: as §1, §2, §3, §4, §5, §6

[3] = test system: pancreatic cancer CFPAC-1 xenograft; assay: Xenograft tumor growth in nude mice, CFPAC-1; type: in vivo; conditions: Table 4I, Pancreatic Ca CFPAC-1, 7 weeks; for % Inhibition: vs control
Method: as §1, §2, §3, §4, §5, §6

[4] = test system: colon cancer HT-29 xenograft; assay: Xenograft tumor growth in nude mice, HT-29; type: in vivo; conditions: Table 4G, Colon Ca HT-29, 6 weeks; for % Inhibition: vs control
Method: as §1, §2, §3, §4, §5, §6

[5] = test system: HCC1806 breast cancer cells; assay: In vitro cell viability, HCC1806; type: cell-based, human; conditions: for In vitro relative inhibitory potency in comparison to MIA-602, HCC-1806: Table 3B, 5 μM for 72 H, MIA-602 = 1
Outline: (§7)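 Potency is reported as percent inhibition of viability compared with the reference antagonist MIA602, measured with CellTiter 96 aqueous one solution reagent. Serum-starved cells (0.5% FBS, 24 h) were treated for 72 h, mostly at 5 μM, otherwise 2 μM.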

MX-1 breast cancer cells = assay: In vitro cell viability, MX-1; type: cell-based, human; conditions: for In vitro relative inhibitory potency in comparison to MIA-602, MX-1: Table 3B, 5 μM for 72 H, MIA-602 = 1
Outline: as §7

[6] = test system: prostate cancer PC3 xenograft; assay: Xenograft tumor growth in nude mice, PC3; type: in vivo; conditions: Table 4N, Prostate Ca PC3, 8 weeks, 5 μg/day s.c.; for % Inhibition: vs control
Method: as §1, §2, §3, §4, §5, §6

[7] = antagonist 5 μM for 72 h, cell proliferation assay, MIA602 = 1

Row | Structure (SMILES) | Tumor Growth % [1] [%] | % Inhibition [1] [%] | Tumor Size (mm3) ([2]; 5 μg/day s.c.) | % Inhibition ([2]; 5 μg/day s.c.) [%] | Tumor Growth % ([3]; 5 μg/day s.c.) [%] | % Inhibition ([3]; 5 μg/day s.c.) [%] | Tumor Size (mm^3) ([4]; 5 μg/day s.c.) | % Inhibition ([4]; 5 μg/day s.c.) [%] | In vitro relative inhibitory potency in comparison to MIA-602, HCC-1806 [5] | relative inhibitory potency in comparison to MIA-602, Breast IICC1806 [5, 7] | In vitro relative inhibitory potency in comparison to MIA-602, MX-1 (MX-1 breast cancer cells) | relative inhibitory potency in comparison to MIA-602, Breast MX-1 (MX-1 breast cancer cells; [7]) | Tumor Size (mm3) [6] [mm3] | % Inhibition [6] [%] | Tumor Size (mm3) ([2]; 2.5 μg/day s.c.) | % Inhibition ([2]; 2.5 μg/day s.c.) [%] | Tumor Growth % ([3]; 2.5 μg/day s.c.) [%] | % Inhibition ([3]; 2.5 μg/day s.c.) [%] | Tumor Size (mm^3) ([4]; 2 μg/day s.c.) | % Inhibition ([4]; 2 μg/day s.c.) [%]
1 | CCCC[C@H](NC(=O)[C@@H](NC(=O)[C@H](CC(=O)O)NC(=O)[C@H](CCC(N)=O)NC(=O)[C@H](CC(C)C)NC(=O)[C@H](CC(C)C)NC(=O)[C@H](CCCN)NC(=O)[C@H](Cc1c[nH]cn1)NC(=O)[C@H](C)NC(=O)[C@H](CO)NC(=O)[C@H](CC(C)C)NC(=O)[C@H](CCC(N)=O)NC(=O)[C@H](CC)NC(=O)[C@H](CC(C)C)NC(=O)[C@@H](NC(=O)[C@H](CCCN)NC(=O)[C@H](Cc1c[nH]cn1)NC(=O)[C@H](Cc1ccc(OC)cc1)NC(=O)[C@H](CCCCNC(=N)N)NC(=O)[C@H](C)NC(=O)[C@@H](NC(=O)[C@H](Cc1c(F)c(F)c(F)c(F)c1F)NC(=O)[C@@H](NC(=O)[C@H](C)NC(=O)[C@H](CC(=O)O)NC(=O)[C@@H](CCCNC(=N)N)NC(=O)[C@H](Cc1ccc(O)cc1)NC(=O)CCCCCCCCCCCNC(=O)Cc1ccccc1)[C@@H](C)CC)[C@@H](C)O)C(C)C)[C@@H](C)CC)C(=O)N[C@H](CCCNC(=N)N)C(=O)N[C@@H](CCCCNC(=N)N)C(N)=O [MIA-602, PhAC-Ada, Tyr D-Arg, Asp, Ala, Ile, 5FPhe, Thr, Ala, Har, Tyr(Me), His, Orn, Val, Leu, Abu, Gin, Leu, Ser, Ala, His, Om, Leu, Leu, Gin, Asp, Ile; Nle, D-Arg, Har NH2, reference compound] ({PhAc-12Ado}-Y[dR]DAI[Phe(F5)]TA[hArg]Y(Me)H[Orn]VL[Abu]QLSAH[Orn]LLQDI[Nle][dR][hArg]-NH2) | 1602.7 | 52.6 | 810.1 | 38.0 | 1587.5 | 19.5 | 582.10 | 16.5 | 1 | 1 | 1 | 1 | 450.9 | 45.5 |  |  |  |  |  | 
2 | CCCC[C@H](NC(=O)[C@@H](NC(=O)[C@H](CC(=O)O)NC(=O)[C@H](CCC(N)=O)NC(=O)[C@H](CC(C)C)NC(=O)[C@H](CC(C)C)NC(=O)[C@H](CCCCN)NC(=O)[C@H](CCCNC(=N)N)NC(=O)[C@H](C)NC(=O)[C@H](CO)NC(=O)[C@H](CC(C)C)NC(=O)[C@H](CCC(N)=O)NC(=O)[C@H](CC)NC(=O)[C@H](CC(C)C)NC(=O)[C@@H](NC(=O)[C@H](CCCCN)NC(=O)[C@H](CCCNC(=N)N)NC(=O)[C@H](Cc1c(F)c(F)c(F)c(F)c1F)NC(=O)[C@H](CCCCNC(=N)N)NC(=O)[C@H](C)NC(=O)[C@@H](NC(=O)[C@H](Cc1ccc(Cl)cc1)NC(=O)[C@@H](NC(=O)[C@H](C)NC(=O)[C@H](CC(=O)O)NC(=O)[C@@H](CCCNC(=N)N)NC(=O)[C@H](Cc1ccc(O)cc1)NC(=O)CCCCCCCCCCCNC(=O)Cc1c(F)c(F)c(F)c(F)c1F)[C@@H](C)CC)[C@@H](C)O)C(C)C)[C@@H](C)CC)C(=O)N[C@H](CCCNC(=N)N)C(=O)N[C@@H](CCCCNC(=N)N)C(=O)NCCCCCCCCCCCC(N)=O [AVR-353, 5FPhAC-Ada-Tyr-DArg-Asp-Ala-Ile-Cpa-Thr-Ala-Har-5FPhe-Arg-Lys-Val-Leu-Abu-Gln-Leu-Ser-Ala-Arg-Lys-Leu-Leu-Gln-Asp-Ile-Nle-DArg-Har-Ada-NH2] ({Phenylacetyl(2,3,4,5,6-F5)-12Ado}-Y[dR]DAI[Phe(4-Cl)]TA[hArg][Phe(F5)]RKVL[Abu]QLSARKLLQDI[Nle][dR][hArg][12Ado]-NH2) | 1335.0 | 60.5 | 910.7 | 30.9 | 1077.6 | 46.2 | 494.70 | 31.8 | 9.396 |  | 2.001 |  | 496.7 | 39.9 | 1056.0 | 19.1 | 1294.1 | 34.3 | 549.30 | 24.2
